EC50 data for 40 molecules are collected here from patent US20190031599A1, “INDANE DERIVATIVES AS MGLUR7 MODULATORS” (Takeda Pharmaceutical Company Limited, priority 2016, published 2019).

Structures can show the parent of a compound that is named as a salt.

The target in the test is T1, human mGluR7 (Homo sapiens, UniProt Q14831).
T1 construct: expressed in transfected cells
Briefly: mGluR7 assay: CRE-directed luciferase reporter gene assay, reduction of forskolin stimulated cAMP production. It is filed as cell-based. As to conditions: stable CHO cell line expressing the CRE-luc reporter and human mGluR7 genes; decrease of forskolin stimulated luminescence; 10-point concentration-response, duplicate wells. A digest of the protocol: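 Stable CHO cell line co-expressing human mGluR7 and a CRE-luciferase reporter; compounds preincubated 15 min at 37 °C, then forskolin added and incubated 5 h at 37 °C. 10-point half-log concentration-response in duplicate, normalised to forskolin-alone (max) and forskolin plus tool mGluR7 agonist (min) controls.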

T1 sequence (Q14831 35-915): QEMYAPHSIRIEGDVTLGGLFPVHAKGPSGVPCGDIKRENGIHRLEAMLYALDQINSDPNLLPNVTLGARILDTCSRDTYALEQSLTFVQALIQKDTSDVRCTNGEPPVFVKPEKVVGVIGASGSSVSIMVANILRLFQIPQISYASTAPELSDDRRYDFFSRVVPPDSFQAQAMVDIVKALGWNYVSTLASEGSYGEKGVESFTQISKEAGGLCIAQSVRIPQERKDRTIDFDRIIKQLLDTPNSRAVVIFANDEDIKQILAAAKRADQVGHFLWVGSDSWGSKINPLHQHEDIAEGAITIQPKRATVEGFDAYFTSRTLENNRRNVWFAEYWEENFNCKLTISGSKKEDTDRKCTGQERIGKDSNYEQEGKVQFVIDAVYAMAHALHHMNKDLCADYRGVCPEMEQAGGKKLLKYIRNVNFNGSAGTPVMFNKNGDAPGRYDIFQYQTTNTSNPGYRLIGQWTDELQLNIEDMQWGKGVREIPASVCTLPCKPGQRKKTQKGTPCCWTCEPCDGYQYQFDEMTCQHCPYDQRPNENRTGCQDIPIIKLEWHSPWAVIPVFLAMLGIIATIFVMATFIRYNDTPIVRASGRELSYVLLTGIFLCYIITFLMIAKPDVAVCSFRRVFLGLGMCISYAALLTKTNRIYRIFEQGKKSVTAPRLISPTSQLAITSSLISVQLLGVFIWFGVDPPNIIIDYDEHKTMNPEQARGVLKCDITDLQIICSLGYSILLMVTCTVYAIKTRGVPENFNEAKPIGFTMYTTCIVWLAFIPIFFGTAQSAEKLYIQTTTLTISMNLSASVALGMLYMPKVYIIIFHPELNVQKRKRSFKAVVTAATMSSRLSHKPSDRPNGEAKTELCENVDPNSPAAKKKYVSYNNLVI

As to `C[C@H](C(=O)N[C@H]1Cc2ccccc2[C@@H]1NCC1CCC1)c1ccc(F)cc1F` [Example 90, (2S)—N-[(1S,2S)-1-[(cyclobutylmethyl)amino]-2,3-dihydro-1H-inden-2-yl]-2-(2,4-difluorophenyl)propanamide], the EC50 came out at 10 nM.

Take `CC(C)(C)OC(=O)N[C@H]1c2ccccc2C[C@@H]1NC(=O)C(c1ccc(F)cc1F)N1CCC1` (stereo partly drawn) [Example 100, tert-butyl N-[(1S,2S)-2-[2-(azetidin-1-yl)-2-(2,4-difluorophenyl)acetamido]-2,3-dihydro-1H-inden-1-yl]carbamate]: the 50% effective concentration (EC50) is 27 nM.

`CCOC1c2ccccc2CC1NC(=O)C(C)c1ccc(F)cc1F` (single isomer, unassigned) [Example 29] returned an EC50 of 10 nM.

In turn, `COC1c2ccccc2CC1NC(=O)C(c1ccc(F)cc1F)N1CC(F)C1` (single isomer, unassigned) [Example 137, 2-(2,4-difluorophenyl)-2-(3-fluoroazetidin-1-yl)-N-(trans)-(1-methoxy-2,3-dihydro-1H-inden-2-yl)acetamide] returned an EC50 of 741 nM.

The molecule `C[C@H](C(=O)N[C@H]1Cc2ccccc2[C@@H]1N)c1ccccc1` [Example 11, (2S)—N-[(1S,2S)-1-amino-2,3-dihydro-1H-inden-2-yl]-2-phenylpropanamide hydrochloride] returned an EC50 of 119 nM. This EC50 is about 6.2-fold lower than that of the molecule before.

Take `COc1cc(F)ccc1C(C)C(=O)N[C@H]1Cc2ccccc2[C@@H]1NC(=O)OC(C)(C)C` (stereo partly drawn) [Example 152, tert-butyl N-[(1S,2S)-2-[2-(4-fluoro-2-methoxyphenyl)propanamido]-2,3-dihydro-1H-inden-1-yl]carbamate]: the midpoint of the response, the EC50, lay at 183 nM. This EC50 is about 1.5-fold higher than that of the molecule before.

For `C[C@H](C(=O)NC1Cc2ccccc2C1O)c1ccccc1` (single isomer, unassigned) [Example 5], the EC50 came out at 654 nM.

`CCOC1c2ccccc2CC1NC(=O)[C@@H](C)c1ccc(F)cc1` (stereo in doubt) [Example 31, (2S)—N-((trans)-1-ethoxy-2,3-dihydro-1H-inden-2-yl)-2-(4-fluorophenyl)propanamide] gave an EC50 of 19 nM.

Molecule `CC(C)(C)OC(=O)N[C@H]1c2ccccc2C[C@@H]1NC(=O)C1(c2ccccc2)CC(=O)C1` [Example 123, tert-butyl N-[(1S,2S)-2-(3-oxo-1-phenylcyclobutaneamido)-2,3-dihydro-1H-inden-1-yl]carbamate] came in with a half-maximal effective concentration (EC50) of 68 nM.

In the case of `CS(=O)(=O)C1c2ccccc2CC1NC(=O)C(OCC1CC1)c1ccccc1` (single isomer, unassigned) [Example 148, 2-(cyclopropylmethoxy)-N-(trans)-(1-methanesulfonyl-2,3-dihydro-1H-inden-2-yl)-2-phenylacetamide], the concentration giving a half-maximal response (EC50) amounted to 16 nM.

As to `CC(C)(C)OC(=O)N[C@H]1c2ccccc2C[C@@H]1NC(=O)C(c1ccc(F)cc1F)N1CC(F)C1` (mixture of isomers) [Example 93, tert-butyl N-[(1S,2S)-2-[2-(2,4-difluorophenyl)-2-(3-fluoroazetidin-1-yl)acetamido]-2,3-dihydro-1H-inden-1-yl]carbamate], the EC50 amounted to 23 nM. The EC50 values of the last two molecules are within 1.5-fold of each other.

`C[C@H](C(=O)NC1Cc2ccccc2C1O)c1ccccc1` (single isomer, unassigned) [Example 3]: the midpoint of the response, the EC50, lay at 349 nM.

Molecule `CO[C@H](C(=O)NC1Cc2ccccc2C1S(C)(=O)=O)c1ccccc1` (single isomer, unassigned) [Example 159] registered an EC50 of 25 nM.

Regarding `CN[C@H]1c2ccccc2C[C@@H]1NC(=O)[C@H](C)c1ccc(F)cc1` [Example 157, (2R)-2-(4-fluorophenyl)-N-[(1S,2S)-1-(methylamino)-2,3-dihydro-1H-inden-2-yl]propanamide], the EC50 is 1380 nM.

`COC1c2ccccc2CC1NC(=O)[C@@H](C)c1ccc(F)cc1` (single isomer, unassigned) [Example 37]: the EC50 is 38 nM.

Turning to `CN[C@H]1c2ccccc2C[C@@H]1NC(=O)[C@@H](C)c1ccc(F)cc1` [Example 64, (2S)-2-(4-fluorophenyl)-N-[(1S,2S)-1-(methylamino)-2,3-dihydro-1H-inden-2-yl]propanamide], a half-maximal response (EC50) required 45 nM. This EC50 and that of the molecule before are within 1.5-fold of each other.

Regarding `C[C@H](C(=O)N[C@H]1Cc2ccccc2[C@@H]1Nc1ncccn1)c1ccc(F)cc1F` [Example 133, (2S)-2-(2,4-difluorophenyl)-N-[(1S,2S)-1-[(pyrimidin-2-yl)amino]-2,3-dihydro-1H-inden-2-yl]propanamide], it took 178 nM to reach a half-maximal effect (EC50).

Regarding `COc1ccc(C(C)C(=O)N[C@H]2Cc3ccccc3[C@@H]2N)cc1` (stereo partly drawn) [Example 57, N-[(1S,2S)-1-amino-2,3-dihydro-1H-inden-2-yl]-2-(4-methoxyphenyl)propanamide hydrochloride], the EC50 came out at 2210 nM.

On to `C[C@H](C(=O)NC1Cc2ccccc2C1O)c1ccc(F)cc1` (single isomer, unassigned) [Example 63], for which the response was half-maximal at 767 nM (EC50).

Turning to `CCC(C(=O)N[C@H]1Cc2ccccc2[C@@H]1N)c1ccc(F)cc1F` (single isomer, unassigned) [Example 16], the EC50 was found to be 747 nM.

`COC1c2ccccc2CC1NC(=O)[C@@H](C)c1ccccc1` (mixture of isomers) [Example 7, (2S)—N-((trans)-1-methoxy-2,3-dihydro-1H-inden-2-yl)-2-phenylpropanamide]: a half-maximal response (EC50) required 29 nM.

`CC(C(=O)N[C@H]1Cc2ccccc2[C@@H]1NC(=O)OC(C)(C)C)c1ccc(F)cc1Cl` (stereo partly drawn) [Example 153, tert-butyl N-[(1S,2S)-2-[2-(2-chloro-4-fluorophenyl)propanamido]-2,3-dihydro-1H-inden-1-yl]carbamate] displayed an EC50 of 63 nM.

Take `N[C@H]1c2ccccc2C[C@@H]1NC(=O)C(c1ccc(F)cc1F)n1ncccc1=O` (single isomer, unassigned) [Example 109]: the EC50 was 573 nM.

The molecule `CC(C)(C(=O)N[C@H]1Cc2ccccc2[C@@H]1N)c1ccc(F)cc1` [Example 99, N-[(1S,2S)-1-amino-2,3-dihydro-1H-inden-2-yl]-2-(4-fluorophenyl)-2-methylpropanamide] yielded an EC50 of 2190 nM.

With `C[C@H](C(=O)NC1Cc2ccccc2C1O)c1ccccc1` (single isomer, unassigned) [Example 6], the midpoint of the response, the EC50, lay at 1560 nM. This EC50 and that of the molecule before are within 1.5-fold of each other.

Consider `N[C@H]1c2ccccc2C[C@@H]1NC(=O)C(c1ccc(F)cc1F)n1ccccc1=O` (single isomer, unassigned) [Example 51], for which a half-maximal response (EC50) required 565 nM.

`COC1c2ccccc2CC1NC(=O)C(c1ccc(F)cc1F)n1ncccc1=O` (single isomer, unassigned) [Example 125, 2-(2,4-difluorophenyl)-N-(trans)-(1-methoxy-2,3-dihydro-1H-inden-2-yl)-2-(6-oxo-1,6-dihydropyridazin-1-yl)acetamide] showed an EC50 of 1070 nM.

Turning to `CC1c2ccccc2CC1NC(=O)[C@@H](NS(C)(=O)=O)c1ccc(F)cc1` (stereo in doubt) [Example 85, (2S)-2-(4-fluorophenyl)-2-methanesulfonamido-N-((trans)-1-methyl-2,3-dihydro-1H-inden-2-yl)acetamide], the midpoint of the response, the EC50, lay at 26 nM.

For `C[C@H](C(=O)N[C@H]1Cc2ccccc2[C@@H]1NCC(F)(F)F)c1ccc(F)cc1F` [Example 59, (2S)-2-(2,4-difluorophenyl)-N-[(1S,2S)-1-[(2,2,2-trifluoroethyl)amino]-2,3-dihydro-1H-inden-2-yl]propanamide], the midpoint of the response, the EC50, lay at 7 nM.

`CC(C(=O)N[C@H]1Cc2ccccc2[C@@H]1N)c1ccc(Cl)cc1` (single isomer, unassigned) [Example 70] had an EC50 of 956 nM. Compared with the last molecule, the EC50 is about 140-fold higher.

For the molecule `C[C@H](C(=O)NC1Cc2ccccc2C1NCC(F)F)c1ccc(F)cc1` (single isomer, unassigned) [Example 84], the concentration for a half-maximal effect (EC50) turned out to be 8 nM.

`COC1c2ccccc2CC1NC(=O)[C@@H](NCC1CC1)c1ccc(F)cc1` (single isomer, unassigned) [Example 55] yielded an EC50 of 1 nM.

On to `COC1c2ccccc2CC1NC(=O)[C@@H](NC(=O)c1cnn(C)c1)c1ccc(F)cc1` (stereo in doubt) [Example 65, (2S)-2-(4-fluorophenyl)-N-(trans)-(1-methoxy-2,3-dihydro-1H-inden-2-yl)-2-[(1-methyl-1H-pyrazol-4-yl)formamido]acetamide], for which the concentration giving a half-maximal response (EC50) turned out to be 4 nM.

`CN[C@@H]1c2ccccc2C[C@@H]1NC(=O)[C@@H](C)c1ccc(F)cc1` [Example 160, (2S)-2-(4-fluorophenyl)-N-[(1R,2S)-1-(methylamino)-2,3-dihydro-1H-inden-2-yl]propanamide]: it took 5940 nM to reach a half-maximal effect (EC50).

Take `COC1c2ccccc2CC1NC(=O)[C@H](NC(=O)C1CC1)c1ccc(F)cc1` (single isomer, unassigned) [Example 144]: the EC50 came out at 191 nM.

In turn, `CC(=O)N[C@H]1c2ccccc2C[C@@H]1NC(=O)[C@@H](C)c1ccc(F)cc1F` [Example 80, (2S)-2-(2,4-difluorophenyl)-N-[(1S,2S)-1-acetamido-2,3-dihydro-1H-inden-2-yl]propanamide] showed an EC50 of 814 nM. Compared with the last molecule, the EC50 is about 4.3-fold higher.

The molecule `CO[C@H](C(=O)N[C@H]1Cc2ccccc2[C@@H]1N)c1ccccc1` [Example 19, (2S)—N-[(1S,2S)-1-amino-2,3-dihydro-1H-inden-2-yl]-2-methoxy-2-phenylacetamide hydrochloride] showed an EC50 of 973 nM.

The molecule `CC(C(=O)N[C@H]1Cc2ccccc2[C@@H]1N)c1ccc(Cl)cc1` (single isomer, unassigned) [Example 69] returned an EC50 of 47 nM.

Consider `CC(C)(C)OC(=O)N[C@H]1c2ccccc2C[C@@H]1NC(=O)C(c1ccc(F)cc1F)n1ccccc1=O` (single isomer, unassigned) [Example 49], for which the EC50 is 133 nM.

The molecule `C[C@H](C(=O)N[C@H]1Cc2ccccc2[C@@H]1NCC1CCOCC1)c1ccc(F)cc1F` [Example 40, (2S)-2-(2,4-difluorophenyl)-N-[(1S,2S)-1-{[(oxan-4-yl)methyl]amino}-2,3-dihydro-1H-inden-2-yl]propanamide] showed an EC50 of 23 nM.
